Laboratory results published in patent publication US20260258032A1, “TYROSINE KINASE 2 INHIBITORS AND USES THEREOF” (BIOGEN MA INC., priority 2022, published 2026).
pIC50: −log10 of the molar value. Where a name gives a salt, the structure may show the parent alone.

Key:
[1] = tested on: Tyk2 kinase activity on STAT4; test: pSTAT4 cell assay (MSD, NK92 cells); assay type: cell-based; conditions: compounds 1 hr, stimulated 15 minutes
Procedure, shortened: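 NK92, serum-starved; cpd 1 hr, 10-pt 4-fold from 10 μM; IL2 30 ng/mL 15 min; lyse; MSD with anti-STAT4 Abs; IC50 by 4-PL fit.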

JH2 domain of human Tyk2 = target: T1, JH2 domain of human Tyk2 (Homo sapiens, UniProt P29597); test: JH2 biochemical assay (TR-FRET probe displacement); assay type: binding; conditions: JH2 biochemical assay
T1 construct: 10×His-tagged TYK2 JH2 domain (amino acid 575-876)
T1 sequence (P29597 575-876): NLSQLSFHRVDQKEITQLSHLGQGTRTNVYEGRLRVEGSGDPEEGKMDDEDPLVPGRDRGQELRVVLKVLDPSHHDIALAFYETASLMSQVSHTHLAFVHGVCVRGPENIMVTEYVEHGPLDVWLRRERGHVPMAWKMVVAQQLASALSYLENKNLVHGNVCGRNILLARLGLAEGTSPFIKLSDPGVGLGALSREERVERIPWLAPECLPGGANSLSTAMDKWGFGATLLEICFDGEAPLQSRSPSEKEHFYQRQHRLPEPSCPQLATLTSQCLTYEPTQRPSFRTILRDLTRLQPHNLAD
Procedure, shortened: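 10×His-tagged human TYK2 JH2 (aa 575-876, 2 nM) incubated 60 min with 2 nM fluorescent probe, 0.1 nM Tb anti-His antibody and compound (10-point 3-fold series from […] top). TR-FRET 520/495 nm ratio, falling with probe displacement, normalized and fitted to a 4-parameter logistic for IC50.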

Structure (SMILES)	pIC50 [1]	pIC50 (JH2 domain of human Tyk2)
CC(=O)Nc1cc2c(cn1)C1(CC1)CN2c1cc(C)nc(N2CC(S(C)(=O)=O)C2)n1 [Example 224, N-(1′-(6-methyl-2-(3-(methylsulfonyl)azetidin-1-yl)pyrimidin-4-yl)-1′,2′-dihydrospiro[cyclopropane-1,3′-pyrrolo[3,2-c]pyridin]-6′-yl)acetamide]	≤ 6.00	6.00 to 7.00
CCCNc1cc(N2CC3(CC3)c3cnc(NC(C)=O)cc32)nc(C(C)(F)F)n1 [Example 156, N-(1′-(2-(1,1-difluoroethyl)-6-(propylamino)pyrimidin-4-yl)-1′,2′-dihydrospiro[cyclopropane-1,3′-pyrrolo[3,2-c]pyridin]-6′-yl)acetamide trifluoroacetate]	≥ 8.00	≥ 8.00
CC(=O)Nc1cc2c(cn1)C1(CC1)CN2c1cc(NCCC(C)F)nc(C(C)(F)F)n1 (stereo not shown) [Example 170, N-(1′-(2-(1,1-difluoroethyl)-6-((3-fluorobutyl)amino)pyrimidin-4-yl)-1′,2′-dihydrospiro[cyclopropane-1,3′-pyrrolo[3,2-c]pyridin]-6′-yl)acetamide trifluoroacetate]	7.00 to 8.00	≥ 8.00
CC(=O)Nc1cc2c(cn1)C1(CC1)CN2c1cc(OC(C#N)C2CC2)nc(C(C)(F)F)n1 (stereo not shown) [Example 152, N-(1′-(6-(cyano(cyclopropyl)methoxy)-2-(1,1-difluoroethyl)pyrimidin-4-yl)-1′,2′-dihydrospiro[cyclopropane-1,3′-pyrrolo[3,2-c]pyridin]-6′-yl)acetamide trifluoroacetate]	6.00 to 7.00	7.00 to 8.00
CCNc1cc(N2CC3(CC3)c3cnc(NC(C)=O)cc32)nc(C(C)(F)F)n1 [Example 167, N-(1′-(2-(1,1-difluoroethyl)-6-(ethylamino)pyrimidin-4-yl)-1′,2′-dihydrospiro[cyclopropane-1,3′-pyrrolo[3,2-c]pyridin]-6′-yl)acetamide trifluoroacetate]	6.00 to 7.00	≥ 8.00
CC(=O)Nc1cc2c(cn1)C1(CC1)CN2c1cc(C)nc(OC2CC(F)C2)n1 (stereo not shown) [Example 370, N-(1′-(2-(3-fluorocyclobutoxy)-6-methylpyrimidin-4-yl)-1′,2′-dihydrospiro[cyclopropane-1,3′-pyrrolo[3,2-c]pyridin]-6′-yl)acetamide]	≤ 6.00	6.00 to 7.00
CC(=O)Nc1cc2c(cn1)C1(CC1)CN2c1cc(-c2ccc(C)nc2)nc(C(C)(F)F)n1 [Example 242, N-(1′-(2-(1,1-difluoroethyl)-6-(6-methylpyridin-3-yl)pyrimidin-4-yl)-1′,2′-dihydrospiro[cyclopropane-1,3′-pyrrolo[3,2-c]pyridin]-6′-yl)acetamide]	7.00 to 8.00	≥ 8.00
COc1ccc(N2CC3(CC3)c3cnc(NC(C)=O)cc32)nc1C(C)(F)F [Example 8, N-(1′-(6-(1,1-difluoroethyl)-5-methoxypyridin-2-yl)-1′,2′-dihydrospiro[cyclopropane-1,3′-pyrrolo[3,2-c]pyridin]-6′-yl)acetamide]	6.00 to 7.00	≥ 8.00
CC(=O)Nc1cc2c(cn1)C1(CC1)CN2c1cc(F)nc(C(C)(F)F)n1 [Example 305, N-(1′-(2-(1,1-difluoroethyl)-6-fluoropyrimidin-4-yl)-1′,2′-dihydrospiro[cyclopropane-1,3′-pyrrolo[3,2-c]pyridin]-6′-yl)acetamide trifluoroacetate]	6.00 to 7.00	7.00 to 8.00
CCOC(=O)c1cc(N2CC3(CC3)c3cnc(NC(C)=O)cc32)nc(C(C)(F)F)n1 [Example 291, Ethyl 6-(6′-acetamidospiro[cyclopropane-1,3′-pyrrolo[3,2-c]pyridin]-1′(2′H)-yl)-2-(1,1-difluoroethyl)pyrimidine-4-carboxylate]	6.00 to 7.00	≥ 8.00
CC(=O)Nc1cc2c(cn1)C1(CC1)CN2c1cc(C)nc(C(F)(F)CO)n1 [Example 289, N-(1′-(2-(1,1-difluoro-2-hydroxyethyl)-6-methylpyrimidin-4-yl)-1′,2′-dihydrospiro[cyclopropane-1,3′-pyrrolo[3,2-c]pyridin]-6′-yl)acetamide]	7.00 to 8.00	≥ 8.00
CC(=O)Nc1cc2c(cn1)C1(CC1)CN2c1nc(C2CCOC2)c(C)s1 (stereo not shown) [Example 82, N-(1′-(5-methyl-4-(tetrahydrofuran-3-yl)thiazol-2-yl)-1′,2′-dihydrospiro[cyclopropane-1,3′-pyrrolo[3,2-c]pyridin]-6′-yl)acetamide trifluoroacetate]	6.00 to 7.00	≥ 8.00
CC(=O)Nc1cc2c(cn1)C1(CC1)CN2c1cc(C(=O)O)nc(C(C)(F)F)n1 [Example 294, 6-(6′-acetamidospiro[cyclopropane-1,3′-pyrrolo[3,2-c]pyridin]-1′(2′H)-yl)-2-(1,1-difluoroethyl)pyrimidine-4-carboxylic acid]	≤ 6.00	7.00 to 8.00
COC1CC1Nc1cc(N2CC3(CC3)c3cnc(NC(C)=O)cc32)nc(C(C)(F)F)n1 (stereo not shown) [Example 177, N-(1′-(2-(1,1-difluoroethyl)-6-((2-methoxycyclopropyl)amino)pyrimidin-4-yl)-1′,2′-dihydrospiro[cyclopropane-1,3′-pyrrolo[3,2-c]pyridin]-6′-yl)acetamide]	7.00 to 8.00	≥ 8.00
CC(=O)Nc1cc2c(cn1)C1(CC1)CN2c1cc(C)cc(N2CCNC(CCO)C2)n1 (stereo not shown) [Example 212, N-(1′-(6-(3-(2-hydroxyethyl)piperazin-1-yl)-4-methylpyridin-2-yl)-1′,2′-dihydrospiro[cyclopropane-1,3′-pyrrolo[3,2-c]pyridin]-6′-yl)acetamide trifluoroacetate]	≤ 6.00	6.00 to 7.00
COC(C)c1nc(C)cc(N2CC3(CC3)c3cnc(NC(C)=O)cc32)n1 (stereo not shown) [Example 130, N-(1′-(2-(1-methoxyethyl)-6-methylpyrimidin-4-yl)-1′,2′-dihydrospiro[cyclopropane-1,3′-pyrrolo[3,2-c]pyridin]-6′-yl)acetamide]	6.00 to 7.00	≥ 8.00
CC(=O)Nc1cc2c(cn1)C1(CC1)CN2c1cc(OC2CCN(C)C2)nc(C(C)(F)F)n1 (stereo not shown) [Example 359, N-(1′-(2-(1,1-difluoroethyl)-6-((1-methylpyrrolidin-3-yl)oxy)pyrimidin-4-yl)-1′,2′-dihydrospiro[cyclopropane-1,3′-pyrrolo[3,2-c]pyridin]-6′-yl)acetamide trifluoroacetate]	≤ 6.00	7.00 to 8.00
COC1CC(Oc2cc(N3CC4(CC4)c4cnc(NC(C)=O)cc43)nc(C(C)(F)F)n2)C1 (stereo not shown) [Example 5, N-(1′-(2-(1,1-difluoroethyl)-6-(3-methoxycyclobutoxy)pyrimidin-4-yl)-1′,2′-dihydrospiro[cyclopropane-1,3′-pyrrolo[3,2-c]pyridin]-6′-yl)acetamide]	7.00 to 8.00	≥ 8.00
CC(=O)Nc1cc2c(cn1)C1(CC1)CN2c1cc(NC[C@H]2CCO2)nc(C(C)(F)F)n1 [Example 162, (R)-N-(1′-(2-(1,1-difluoroethyl)-6-((oxetan-2-ylmethyl)amino)pyrimidin-4-yl)-1′,2′-dihydrospiro[cyclopropane-1,3′-pyrrolo[3,2-c]pyridin]-6′-yl)acetamide]	7.00 to 8.00	≥ 8.00
CC(=O)Nc1cc2c(cn1)C1(CC1)CN2c1cc(OC2COC2)nc(C(C)(F)F)n1 [Example 141, N-(1′-(2-(1,1-difluoroethyl)-6-(oxetan-3-yloxy)pyrimidin-4-yl)-1′,2′-dihydrospiro[cyclopropane-1,3′-pyrrolo[3,2-c]pyridin]-6′-yl)acetamide]	6.00 to 7.00	≥ 8.00
CC(=O)Nc1cc2c(cn1)C1(CC1)CN2c1cc(NC2CC23CC3)nc(C(C)(F)F)n1 (stereo not shown) [Example 176, N-(1′-(2-(1,1-difluoroethyl)-6-(spiro[2.2]pentan-1-ylamino)pyrimidin-4-yl)-1′,2′-dihydrospiro[cyclopropane-1,3′-pyrrolo[3,2-c]pyridin]-6′-yl)acetamide trifluoroacetate]	7.00 to 8.00	≥ 8.00
CCS(=O)(=O)C1CN(c2nc(C)cc(N3CC4(CC4)c4cnc(NC(C)=O)cc43)n2)C1 [Example 225, N-(1′-(2-(3-(ethylsulfonyl)azetidin-1-yl)-6-methylpyrimidin-4-yl)-1′,2′-dihydrospiro[cyclopropane-1,3′-pyrrolo[3,2-c]pyridin]-6′-yl)acetamide]	≤ 6.00	6.00 to 7.00
CCOc1cc(C)cc(N2CC3(CC3)c3cnc(NC(C)=O)cc32)n1 [Example 335, N-(1′-(6-ethoxy-4-methylpyridin-2-yl)-1′,2′-dihydrospiro[cyclopropane-1,3′-pyrrolo[3,2-c]pyridin]-6′-yl)acetamide trifluoroacetate]	≤ 6.00	7.00 to 8.00
CNCc1cc(N2CC3(CC3)c3cnc(NC(C)=O)cc32)nc(C(C)(F)F)n1 [Example 298, N-(1′-(2-(1,1-difluoroethyl)-6-((methylamino)methyl)pyrimidin-4-yl)-1′,2′-dihydrospiro[cyclopropane-1,3′-pyrrolo[3,2-c]pyridin]-6′-yl)acetamide]	≤ 6.00	7.00 to 8.00
CC(=O)Nc1cc2c(cn1)C1(CC1)CN2c1nc(C2CCCOC2)cs1 (stereo not shown) [Example 81, N-(1′-(4-(tetrahydro-2H-pyran-3-yl)thiazol-2-yl)-1′,2′-dihydrospiro[cyclopropane-1,3′-pyrrolo[3,2-c]pyridin]-6′-yl)acetamide trifluoroacetate]	≤ 6.00	7.00 to 8.00
CC(=O)Nc1cc2c(cn1)C1(CC1)CN2c1cc(C(C)C)nc(C(C)(F)F)n1 [Example 53, N-(1′-(2-(1,1-difluoroethyl)-6-isopropylpyrimidin-4-yl)-1′,2′-dihydrospiro[cyclopropane-1,3′-pyrrolo[3,2-c]pyridin]-6′-yl)acetamide]	7.00 to 8.00	≥ 8.00
